{"source": "paper PMC12669040", "about": "“Tumour-specific STING agonist synthesis via a two-component prodrug system” (Nature Chemistry, 2025)", "key": {"[1]": {"test_system": "THP-1 Lucia ISG cells (interferon pathway)", "assay": "Potency test of purified dimers on THP-1 Lucia ISG reporter cells", "assay_type": "cell-based, human", "details": "for Raw readings: replicates 1-3, duplicate wells"}, "Hs578T xenografts": {"test_system": "Hs578T xenografts", "assay": "Hs578T zebrafish xenograft model", "details": "for 2dpi phagocytosis: individual larvae; for M1 (M1/M2) / M2 (M1/M2) / Caspase-3 / TAM / Tumor Size: replicate values"}}, "note": "Values joined by “and” are separate entries in the source; they are usually repeats but may differ in a detail not shown here. Identical values can stand only once."}
{"smiles": "COc1cc2sc(C(=O)CCC(=O)O)cc2cc1SCCSc1cc2cc(C(=O)CCC(=O)O)sc2cc1OC", "note": "[SC2S]", "values": [{"measurement": "fold induction at 0.048828 µM", "setting": "[1]; Homo sapiens, THP1-Lucia ISG, 24 h, Concentration 0.048828 μM, three replicates, read-out: Processed reporter response per replicate (reading relative to DMSO)", "value": 1.32}, {"measurement": "fold induction at 1.5625 µM", "setting": "[1]; Homo sapiens, THP1-Lucia ISG, 24 h, Concentration 1.5625 μM, three replicates, read-out: Processed reporter response per replicate (reading relative to DMSO)", "value": 332}, {"measurement": "fold induction at 3.125 µM", "setting": "[1]; Homo sapiens, THP1-Lucia ISG, 24 h, Concentration 3.125 μM, three replicates, read-out: Processed reporter response per replicate (reading relative to DMSO)", "value": 425}, {"measurement": "fold induction at 6.25 µM", "setting": "[1]; Homo sapiens, THP1-Lucia ISG, 24 h, Concentration 6.25 μM, three replicates, read-out: Processed reporter response per replicate (reading relative to DMSO)", "value": 434}, {"measurement": "fold induction at 12.5 µM", "setting": "[1]; Homo sapiens, THP1-Lucia ISG, 24 h, Concentration 12.5 μM, three replicates, read-out: Processed reporter response per replicate (reading relative to DMSO)", "value": 407}, {"measurement": "EC50", "setting": "[1]; Homo sapiens, THP1-Lucia ISG, 24 h, three biological replicates, read-out: EC50, THP-1 Lucia interferon reporter", "value": 710, "unit": "nM"}, {"measurement": "Raw readings", "setting": "[1]; SC2S 0.024414 uM", "value": "620 RLU and 583 RLU and 1367 RLU and 1519 RLU and 365 RLU and 638 RLU"}, {"measurement": "Raw readings", "setting": "[1]; SC2S 0.048828 uM", "value": "577 RLU and 837 RLU and 1473 RLU and 1276 RLU and 668 RLU and 425 RLU"}, {"measurement": "Raw readings", "setting": "[1]; SC2S 0.097656 uM", "value": "783 RLU and 620 RLU and 2316 RLU and 2552 RLU and 1504 RLU and 372 RLU"}, {"measurement": "Raw readings", "setting": "[1]; SC2S 0.195313 uM", "value": "2302 RLU and 2526 RLU and 10005 RLU and 13263 RLU and 15158 RLU and 614 RLU"}, {"measurement": "Raw readings", "setting": "[1]; SC2S 0.390625 uM", "value": "13233 RLU and 15402 RLU and 73880 RLU and 85525 RLU and 96208 RLU and 759 RLU"}, {"measurement": "Raw readings", "setting": "[1]; SC2S 0.78125 uM", "value": "80951 RLU and 92499 RLU and 198651 RLU and 223105 RLU and 189225 RLU and 37417 RLU"}, {"measurement": "Raw readings", "setting": "[1]; SC2S 1.5625 uM", "value": "175164 RLU and 179560 RLU and 265669 RLU and 303539 RLU and 222866 RLU and 166854 RLU"}, {"measurement": "Raw readings", "setting": "[1]; SC2S 3.125 uM", "value": "222262 RLU and 231080 RLU and 301434 RLU and 333311 RLU and 245937 RLU and 322808 RLU"}, {"measurement": "Raw readings", "setting": "[1]; SC2S 6.25 uM", "value": "230364 RLU and 232723 RLU and 323434 RLU and 349356 RLU and 281517 RLU and 362047 RLU"}, {"measurement": "Raw readings", "setting": "[1]; SC2S 12.5 uM", "value": "216991 RLU and 217865 RLU and 313187 RLU and 335098 RLU and 238105 RLU and 315297 RLU"}, {"measurement": "2dpi phagocytosis", "setting": "Hs578T xenografts; experiment 230522", "value": "35 and 30 and 42 and 17 and 0* and 22 and 16"}, {"measurement": "2dpi phagocytosis", "setting": "Hs578T xenografts; experiment 230726", "value": "62 and 48 and 23 and 18 and 44 and 12 and 10 and 20"}, {"measurement": "M1 (M1/M2)", "setting": "Hs578T xenografts; 2dpi", "value": "56.4103 and 69.5652 and 75.5556 and 67.5 and 90 and 84.6154 and 78.7234 and 82.8947 and 70.4918 and 72.549 and 65.3846 and 65 and 82.6087 and 55.5556 and 72.2222"}, {"measurement": "M2 (M1/M2)", "setting": "Hs578T xenografts; 2dpi", "value": "43.5897 and 30.4348 and 24.4444 and 32.5 and 10 and 15.3846 and 21.2766 and 17.1053 and 29.5082 and 27.451 and 34.6154 and 35 and 17.3913 and 44.4444 and 27.7778"}, {"measurement": "apoptosis (activated Caspase 3) in xenografts", "setting": "Hs578T xenografts; 4 dpi, MSA2 15 μM, SC2S 0.62 μM, β-GlcA-N1/E4 20 μM each", "value": "significantly induced apoptosis"}, {"measurement": "M1 (M1/M2)", "setting": "Hs578T xenografts; 4dpi", "value": "36.3636 and 58.3333 (2×) and 42.8571 and 37.5 and 12.5 and 25 and 54.5455 and 41.1765 and 31.4286 and 70.3704 and 40 and 39.1304 and 37.037 and 33.3333"}, {"measurement": "M2 (M1/M2)", "setting": "Hs578T xenografts; 4dpi", "value": "63.6364 and 41.6667 (2×) and 57.1429 and 62.5 and 87.5 and 75 and 45.4545 and 58.8235 and 68.5714 and 29.6296 and 60 and 60.8696 and 62.963 and 66.6667"}, {"measurement": "Caspase-3", "setting": "Hs578T xenografts; experiment 230522", "value": "1.443 and 1.289 and 1.712 and 1.324 and 1.988 and 1.517 and 1.448 and 1.484 and 1.486 and 2.204 and 2.224"}, {"measurement": "TAM", "setting": "Hs578T xenografts; experiment 230522", "value": "2.1705 and 1.352 and 2.571 and 2.448 and 1.557 and 1.167"}, {"measurement": "Tumor Size", "setting": "Hs578T xenografts; experiment 230522", "value": "1.033 and 0.4622 and 0.7179 and 0.9145 and 1.19 and 0.9204 and 0.6815 and 0.7277 and 0.5409 and 0.7788"}, {"measurement": "Caspase-3", "setting": "Hs578T xenografts; experiment 230726", "value": "1.045 and 1.374 and 1.091 and 2.171 and 0.9199 and 1.451 and 2.115"}, {"measurement": "TAM", "setting": "Hs578T xenografts; experiment 230726", "value": "1.204 and 2.4711 and 1.9907 and 1.109 and 1.5815 and 1.362 and 3.515 and 1.246"}, {"measurement": "Tumor Size", "setting": "Hs578T xenografts; experiment 230726", "value": "0.495 and 0.08364 and 0.7374 and 1.174 and 0.7912 and 0.9371 and 0.8603"}]}
